The values that follow come from patent EP0991637B1, “BENZO(5,6)CYCLOHEPTA(1,2-B)PYRIDINE DERIVATIVES AS FARNESYL PROTEIN TRANSFERASE INHIBITORS” (SCHERING CORPORATION, priority 1997, dated 1998).

The test system of one test is COS Cell. Nature of the test: COS Cell IC50 (Cell-Based Assay), procedure of WO 95/10516. The following applies: range stated for the whole group of compounds. As for the experimental part:
FPT IC50 (inhibition of farnesyl protein transferase, in vitro enzyme assay) and COS Cell IC50 (Cell-Based Assay) were determined following the assay procedures described in WO 95/10516, published April 20, 1995. GGPT IC50 (inhibition of geranylgeranyl protein transferase, in vitro enzyme assay), Cell Mat Assay, and anti-tumor activity (in vivo anti-tumor studies) could be determined by the assay procedures described in WO 95/10516. The disclosure of WO 95/10516 is incorporated herein by reference thereto.

The test system of the next test is Human tumor cells. The test is described as follows: Soft Agar Assay (anchorage-independent growth, colony outgrowth, MTT staining). It counts as cell-based. Particulars: 0.3% agarose over 0.6% agarose, 10-16 days at 37°C under 5% CO2. On the procedure: Anchorage-independent growth is a characteristic of tumorigenic cell lines. Human tumor cells are suspended in growth medium containing 0.3% agarose and an indicated concentration of a farnesyl transferase inhibitor. The solution is overlayed onto growth medium solidified with 0.6% agarose containing the same concentration of farnesyl transferase inhibitor as the top layer. After the top layer is solidified, plates are incubated for 10-16 days at 37°C under 5% CO2 to allow colony outgrowth. After incubation, the colonies are stained by overlaying the agar with a solution of MTT (3-[4,5-dimethyl-thiazol-2-yl]-2,5-diphenyltetrazolium bromide, Thiazolyl blue) (1 mg/mL in PBS). Colonies can be counted and the IC50's can be determined.

For the compound `NC(=O)[C@H]1C[C@@H]1C(=O)N1CCC([C@H]2c3ncc(Br)cc3CCc3cc(Cl)cc(Br)c32)CC1` [Compound 55.0, Trans-2(S)-[[4-(3,10-dibromo-8-chloro-6,11-dihydro-5H-benzo[5,6]cyclohepta[1,2-b]pyridin-11(R)-yl)-1-piperidinyl]carbonyl]-(S)-cyclopropanecarboxamide], the IC50 with COS Cell was in the range of 10 to 500 nM.

Consider `O=C(O)C=C1CCC(=CC(=O)N2CCC([C@H]3c4ncc(Br)cc4CCc4cc(Cl)cc(Br)c43)CC2)CC1` [Example 14], for which the IC50 was 10 to 500 nM in the test with COS Cell and more than 500 nM in the test on Human tumor cells.

As to `CCOC(=O)C1CCC(CC(=O)N2CCC([C@H]3c4ncc(Br)cc4CCc4cc(Cl)cc(Br)c43)CC2)CC1` (stereo partly shown) [Example 8], the values for the IC50 in the test with COS Cell and with Human tumor cells were 10 to 500 nM and more than 500 nM, respectively.

Regarding `O=C(O)Cc1ccc(CC(=O)N2CCC([C@H]3c4ncc(Br)cc4CCc4cc(Cl)cc(Br)c43)CC2)cc1` [Example 3], the IC50 in the test with COS Cell fell in the range of 10 to 500 nM.

As to `NC(=O)CC1CCC(CC(=O)N2CCC([C@H]3c4ncc(Br)cc4CCc4cc(Cl)cc(Br)c43)CC2)CC1` (stereo partly shown) [Example 22], the IC50 with COS Cell lay within 10 to 500 nM.

In turn, `NC(=O)C1CCC(CC(=O)N2CCC([C@H]3c4ncc(Br)cc4CCc4cc(Cl)cc(Br)c43)CC2)CC1` (stereo partly shown) [Example 23] displayed an IC50 with COS Cell of 10 to 500 nM.

In the test with COS Cell, `O=C(O)C[C@H]1CC[C@@H](C(=O)N2CCC([C@H]3c4ncc(Br)cc4CCc4cc(Cl)cc(Br)c43)CC2)CC1` [Example 35] gave an IC50 of 10 to 500 nM.

In the test on COS Cell, `O=C(O)CC1CCC(CC(=O)N2CCC([C@H]3c4ncc(Br)cc4CCc4cc(Cl)cc(Br)c43)CC2)CC1` (stereo partly shown) [Example 13] had an IC50 of 10 to 500 nM.

`COC(=O)CNC(=O)Cc1ccc(CC(=O)N2CCC([C@H]3c4ncc(Br)cc4CCc4cc(Cl)cc(Br)c43)CC2)cc1` [Example 18] yielded an IC50 in the test on COS Cell of 10 to 500 nM.

In the test with COS Cell, `COC(=O)CNC(=O)Cc1cccc(CC(=O)N2CCC([C@H]3c4ncc(Br)cc4CCc4cc(Cl)cc(Br)c43)CC2)c1` [Example 17] registered an IC50 of 10 to 500 nM.

`COC(=O)Cc1ccc(CC(=O)N2CCC([C@H]3c4ncc(Br)cc4CCc4cc(Cl)cc(Br)c43)CC2)cc1` [Example 34] yielded a half-inhibitory concentration (IC50) with COS Cell of 10 to 500 nM.

In the test on COS Cell, `CONC(=O)Cc1ccc(CC(=O)N2CCC([C@H]3c4ncc(Br)cc4CCc4cc(Cl)cc(Br)c43)CC2)cc1` [Example 19] displayed an IC50 of 10 to 500 nM.

Consider `O=C(O)C[C@H]1CC[C@H](C(=O)N2CCC([C@H]3c4ncc(Br)cc4CCc4cc(Cl)cc(Br)c43)CC2)CC1` [Example 36], for which the IC50 in the test with COS Cell fell in the range of 10 to 500 nM.

Consider `O=C(O)Cc1cccc(CC(=O)N2CCC([C@H]3c4ncc(Br)cc4CCc4cc(Cl)cc(Br)c43)CC2)c1` [Example 4], for which the IC50 with COS Cell lay in the range of 10 to 500 nM.

For the compound `NC(=O)Cc1cccc(CC(=O)N2CCC([C@H]3c4ncc(Br)cc4CCc4cc(Cl)cc(Br)c43)CC2)c1` [Example 16], in the test with COS Cell, the IC50 lay within 10 to 500 nM.

`NC(=O)Cc1ccc(CC(=O)N2CCC([C@H]3c4ncc(Br)cc4CCc4cc(Cl)cc(Br)c43)CC2)cc1` [Example 15]: the IC50 in the test on COS Cell fell in the range of 10 to 500 nM.

In turn, `O=C(O)C1CCC(CC(=O)N2CCC([C@H]3c4ncc(Br)cc4CCc4cc(Cl)cc(Br)c43)CC2)CC1` (stereo partly shown) [Example 12] gave an IC50 in the test with COS Cell of 10 to 500 nM.

Broadly, the IC50 is the concentration at which inhibition is half-maximal. Read a low IC50 as higher potency.
